In patent US11357752B2, “Carolacton and derivatives thereof for use in the treatment of cell proliferation disorders” (Helmholtz-Zentrum für Infektionsforschung GmbH, priority 2017, dated 2022):
pIC50: −log10 of the molar value. Where two headings read alike, the source gives them in different places.

Tested on: THP-1 cells
Assay: CellTiter-Glo luminescent cell viability assay
Assay type: cell-based, human
Settings: for pIC50: Homo sapiens, THP-1, 72 h, 72 h
Protocol: To evaluate the effects of one compound on 7 cell lines with a CellTiter-Glo Luminescent Cell Viability Assay. Cells were treated with compounds for 72 hours at 37° C./5% CO2 incubator. Compound stock concentration was 20 mM, concentrations to be assayed 100\50\15\10.5\0.1\0.05\0.01\0.005 pM. • i) Materials and Reagents
a) Cells in log-phase are collected and counted. Cell suspensions are added to each well of 384-w plate at a suitable density. The margin wells are filled with PBS.
b) Test compound at various concentrations are added in duplicates
c) The cells were incubated for 72 h in 370/5% CO 2 incubator.
d) After incubation, CellTiter-Glo® Reagent is added to each test well and shack for 2 minutes on an orbital shaker.
e) The plates are shortly centrifuged at 90×g for 30 s and incubated at room temperature for additional 10 minutes to stabilize the luminescent signal.
f) Luminescence signals are detected on PHERAstar Plus.
g) Data is collected in Microsoft excel forms and analyzed with GraphPad Prism v.6 software. • iii) Data analysis
The potential effect of the testing compounds an cell proliferation was calculated by the formula below: Inhibition %=[…]
Since hsMTHFD2 is expressed in human mitochondria and overexpressed in many tumor cells we next aimed to evaluate its potential as an anticancer compound. To this end IC50 values for carolacton were determined for six different cancer cell lines as well as HUVEC cells as primary non-tumor cells. The CellTiter-Glo luminescent cell viability assay (Promega) was used on triplicate cultures grown for three days. Each cell line was tested in three independent experiments (performed at different times and by different experimentators): First, using natural carolacton purified from culture supernatants of Sorangium cellulosum and solved in methanol; second, using carolacton synthesized de novo according to Schmidt et al. 2012 and solved in DMSO; and third, using synthetic carolacton synthesized de novo according to Schmidt et al. 2012 and solved in methanol.

`CO[C@H](CC(=O)O)[C@@H](C)C(=O)[C@H](C)/C=C(\C)[C@H]1OC(=O)[C@H](O)[C@H](O)/C=C/[C@H](C)CCC[C@@H]1C` [Carolacton, carolacton] showed a pIC50 (THP 1, synthetic C, methanol, read-out: IC50 inhibition of cancer cell proliferation) of 4.30, a pIC50 (THP-1, natural C, methanol, read-out: IC50 inhibition of cancer cell proliferation) of 5.05 and a pIC50 (read-out: IC50 inhibition of cancer cell proliferation, THP-1, synthetic C, DMSO) of 3.99. For the same compound, the Bottom (THP 1, synthetic C, methanol) was 14.83, the Top (THP 1, synthetic C, methanol) was 67.53 and the Bottom (THP-1, natural C, methanol) was 2.537. For the same compound, the Top (THP-1, natural C, methanol) was 75.92, the Bottom (THP-1, synthetic C, DMSO) was −4.341 and the Top (THP-1, synthetic C, DMSO) was “=100.0”.
